Results on 1 compound are retold here after BindingDB's records for doi:10.1021/acs.jmedchem.9b01967 (The University of Tokyo, 2020).

A short description of this test: Inhibition of ATX (unknown origin)-mediated cell migration in human MDA-MB-231 cells assessed as reduction in cell motility after 3 hrs by Diff-Quick staining based microplate reader analysis.

On to `CCCCCCn1c(C)cc(=O)n2cc(-c3ccc(Cl)cc3)nc12`, for which the IC50 stood at 30 nM.

As a reminder, the IC50 is the point on the concentration scale where inhibition reaches its midpoint.
